The structures appear in SMILES notation.

Here are results for one compound from publication PMC12352625, “Double crossed? Structural and computational studies of an unusually crosslinked haem in Methylococcus capsulatus cytochrome P460” (Chemical Science, 2025).

This assay concerns the target T1, McP460 (cytochrome P460 from Methylococcus capsulatus (Bath)) (Methylococcus capsulatus, UniProt G1UBD9).
T1 construct: gene MCA0524; recombinant from E. coli; covalent c-type P460 haem (Cys140, Cys143, His144, Lys78)
T1 sequence (G1UBD9 18-161): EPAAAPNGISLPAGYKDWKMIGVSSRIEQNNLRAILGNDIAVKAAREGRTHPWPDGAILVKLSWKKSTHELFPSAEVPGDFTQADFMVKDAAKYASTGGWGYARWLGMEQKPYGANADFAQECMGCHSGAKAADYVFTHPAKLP
Kind of assay: DCPIP reduction assay; N2O by GC-MS; nitrite by Griess assay. The class given is biochemical. The following applies: 5 uM enzyme, 6 uM PMS, 2 mM [Ru(NH3)6]Cl3, 0-1000 uM hydroxylamine for product assays; anaerobic or aerobic. In general terms: Nitrite, measured by Griess reagent, commonly stands in for NO production.

For the compound `NO` [hydroxylamine], the “DCPIP reduction assay; N2O by GC-MS; nitrite by Griess assay” value was “assays were carried out to assess the protein's ability to oxidise hydroxylamine, and product formation”.
